Test results published in US20240400560A1, “BICYCLIC HETEROCYCLIC DERIVATIVE HAVING VIRAL GROWTH INHIBITORY ACTIVITY AND PHARMACEUTICAL COMPOSITION CONTAINING SAME” (Shionogi & Co., Ltd., priority 2021, published 2024).
pEC50, pIC50: −log10 of the molar value. Like-named read-outs stand apart in the source and are kept apart here.

What was measured:
[1] = molecular target: SARS-CoV-2 3CL protease (Severe acute respiratory syndrome coronavirus 2, UniProt P0DTD1); experiment: Inhibitory activity test against SARS-CoV-2 3CL proteases; format: biochemical
[2] = system: SARS-CoV-2; experiment: Inhibitory activity of cytopathic effect (CPE) in HEK293T/ACE2-TMPRSS2 cells; format: cell-based; settings: Severe acute respiratory syndrome coronavirus 2, HEK-293T, 72 h
[3] = read-out: IC50 (50% SARS-CoV-2 3CL protease inhibitory concentration)
[4] = 50% SARS-CoV-2 infected cell death inhibitory concentration, HEK293T/ACE2-TMPRSS2 cells, CellTiter-Glo 2.0 after 3 days culture, read-out: EC50
[5] = HEK293T/ACE2-TMPRSS2 cells, cultured 3 days, CellTiter-Glo 2.0 luminescence, read-out: EC50 (50% SARS-CoV-2 infected cell death inhibitory concentration)
[6] = IC50 (50% SARS-CoV-2 3CL protease inhibitory concentration)
[7] = read-out: EC50 (50% SARS-CoV-2 infected cell death inhibitory concentration)

Compound	pIC50 [1, 3]	pEC50 [2, 5]	other results
[2H]C([2H])([2H])O[C@@H]1CCN(c2cc3c(c(OC)n2)c(=O)n(-c2cncc(Cl)c2C)c(=O)n3-c2ccc(F)c(Cl)c2)C1 (atropisomer, axis not shown) [Compound I-0947]	8.64	–	pEC50 [2, 4]: 8.20
Cn1cnc(Cn2c(=O)c3c4nccnc4c(N4CC[C@@H](O)C4)cc3n(Cc3cc(F)c(F)c(F)c3)c2=O)n1 (racemic) [Compound I-0552]	> 7.00	6.00 to 7.00	–
Cn1cnc(Cn2c(=O)c3c4ncn(C)c4c(N4CC[C@@H](F)C4)cc3n(Cc3cc(F)c(F)c(F)c3)c2=O)n1 (racemic) [Compound I-0554]	6.48	–	pEC50 [2, 4]: 5.56
CNC(=O)Cn1c(=O)c2c3c(c(-c4cc(C#N)ccc4Cl)cc2n(Cc2cc(F)c(F)c(F)c2)c1=O)CCO3 [Compound I-0443]	> 7.00	–	–
COc1nc(N2CC[C@@H](C(N)=O)C2)cc2c1c(=O)n(Cc1ncn(C)n1)c(=O)n2Cc1cc(F)c(F)c(Cl)c1 [Compound I-0445]	7.66	–	–
COc1nc(N2CC[C@H](F)C2)cc2c1c(=O)n(Cc1ncn(C)n1)c(=O)n2Cc1cc(F)c(F)c(F)c1 [Compound I-0446]	–	–	pIC50 [1, 6]: > 7.00
COc1nc(N2CC[C@@H](OC)C2)cc2c1c(=O)n(Cc1ncn(C)n1)c(=O)n2Cc1cc(F)c(F)c(F)c1 [Compound I-0449]	7.43	–	–
COc1nc(N2CCC(C#N)C2)cc2c1c(=O)n(Cc1ncn(C)n1)c(=O)n2Cc1cc(F)c(F)c(F)c1 (stereo not drawn) [Compound I-0451]	> 7.00	–	–
COc1nc(N2CC[C@@H](F)C2)cc2c1c(=O)n(Cc1ncn(C)n1)c(=O)n2Cc1cc(F)c(F)c(F)c1 [Compound I-0453]	–	–	pIC50 [1, 6]: 8.60
COc1nc(N2C[C@H]3C[C@@H]2CN3)cc2c1c(=O)n(-c1cncc(Cl)c1)c(=O)n2Cc1cc(F)c(F)c(F)c1 [Compound I-0459]	> 7.00	–	–
Cn1cnc(Cn2c(=O)c3c4c(c(-c5cc(C#N)ccc5Cl)cc3n(Cc3cc(F)c(F)c(F)c3)c2=O)CCCO4)n1 [Compound I-0460]	8.04	–	–
COc1nc(C2=CC3CCC(C2)N3)cc2c1c(=O)n(-c1cncc(Cl)c1)c(=O)n2Cc1cc(F)c(F)c(F)c1 (stereo not drawn) [Compound I-0464]	–	–	pIC50 [1, 6]: 7.96
[2H]C1([2H])N(c2cc3c(c(OC)n2)c(=O)n(Cc2ncn(C)n2)c(=O)n3Cc2cc(F)c(F)c(F)c2)C([2H])([2H])C([2H])([2H])C1([2H])[2H] [Compound I-0466]	> 7.00	–	–
Cn1cnc(Cn2c(=O)c3c4c(c(-c5cc(N=S(C)(C)=O)ccc5Cl)cc3n(Cc3cc(F)c(F)c(F)c3)c2=O)CCO4)n1 [Compound I-0472]	> 7.00	–	–
Cn1cnc(Cn2c(=O)c3c4occc4c(-c4cc(C#N)ccc4Cl)cc3n(Cc3cc(F)c(F)c(F)c3)c2=O)n1 [Compound I-0473]	8.39	–	–
COc1nc(N2CC[C@@H](F)C2)cc2c1c(=O)n(Cc1ncn(C)n1)c(=O)n2Cc1cc(F)c(F)c(Cl)c1 [Compound I-0484]	> 7.00	–	–
Cn1cnc(Cn2c(=O)c3c(F)c(Cl)c(-c4cc5c(cc4Cl)NC(=O)C5)cc3n(Cc3cc(F)c(F)c(Cl)c3)c2=O)n1 [Compound I-0492]	> 7.00	–	–
COc1nc2cc(-c3cc(OC)c4c(=O)n(Cc5ncn(C)n5)c(=O)n(Cc5cc(F)c(F)c(F)c5)c4c3)c(Cl)cc2[nH]1 [Compound I-0501]	8.19	–	–
N#Cc1ccc(Cl)c(-c2cc3c(c4c2CCO4)c(=O)n(Cc2cc(F)c[nH]c2=O)c(=O)n3Cc2cc(F)c(F)c(F)c2)c1 [Compound I-0504]	> 7.00	–	–
Cn1cnc(Cn2c(=O)c3c(F)c(Cl)c(-c4cc(C#N)ccc4Cl)cc3n(Cc3cc(F)c(F)c(Cl)c3)c2=O)n1 [Compound I-0506]	> 7.00	–	–
COc1nc(N2CC[C@@H](C(N)=O)C2)cc2c1c(=O)n(-c1cncc(Cl)c1)c(=O)n2Cc1cc(F)c(F)c(F)c1 [Compound I-0511]	> 7.00	–	–
COc1cc(-c2cnc(N)cc2Cl)cc2c1c(=O)n(Cc1ncn(C)n1)c(=O)n2Cc1cc(F)c(F)c(F)c1 [Compound I-0514]	> 7.00	–	–
COc1nc2c(=O)n(Cc3ncn(C)n3)c(=O)n(Cc3cc(F)c(F)c(F)c3)c2cc1-c1cc(C#N)ccc1Cl [Compound I-0516]	7.82	–	–
COc1cc(-c2cc(C(O)C(F)(F)F)ccc2Cl)cc2c1c(=O)n(Cc1ncn(C)n1)c(=O)n2Cc1cc(F)c(F)c(F)c1 (stereo not drawn) [Compound I-0517]	> 7.00	–	–
COc1ccc(Cl)c(-c2cc(OC)c3c(=O)n(Cc4ncn(C)n4)c(=O)n(Cc4cc(F)c(F)c(F)c4)c3c2)c1 [Compound I-0523]	7.49	–	–
COc1nc(N2C[C@@H]3CC[C@H]2CN3)cc2c1c(=O)n(-c1cncc(Cl)c1)c(=O)n2Cc1cc(F)c(F)c(Cl)c1 [Compound I-0540]	> 7.00	–	–
COc1nc(N2[C@@H]3CC[C@H]2CNC3)cc2c1c(=O)n(-c1cncc(Cl)c1)c(=O)n2Cc1cc(F)c(F)c(F)c1 [Compound I-0541]	–	–	pIC50 [1, 6]: 8.47

Compound	pIC50 [1, 3]	pEC50 [2, 5]	other results
Cn1cnc(Cn2c(=O)c3c(F)c(I)c(-c4cc(C#N)ccc4Cl)cc3n(Cc3cc(F)c(F)c(Cl)c3)c2=O)n1 [Compound I-0542]	> 7.00	–	–
COc1cc(-c2cc(C3(O)CC3)ccc2Cl)cc2c1c(=O)n(Cc1ncn(C)n1)c(=O)n2Cc1cc(F)c(F)c(F)c1 [Compound I-0546]	> 7.00	> 7.00	–
O=c1c2cnc(N3[C@@H]4CC[C@H]3CNC4)cc2n(Cc2cc(F)c(F)c(Cl)c2)c(=O)n1-c1cnc2ccccn12 [Compound I-0547]	–	–	pIC50 [1, 6]: > 7.00; pEC50 [2, 7]: > 7.00
O=c1c2c(F)cc(N3[C@@H]4CC[C@H]3CNC4)cc2n(Cc2cc(F)c(F)c(Cl)c2)c(=O)n1-c1cnc2ccccn12 [Compound I-0548]	–	–	pIC50 [1, 6]: > 7.00; pEC50 [2, 7]: > 7.00
COc1nc2c(=O)n(Cc3ncn(C)n3)c(=O)n(Cc3cc(C#N)ccc3C)c2cc1-c1cc(C#N)ccc1Cl [Compound I-0549]	> 7.00	6.00 to 7.00	–
COc1nc2c(=O)n(Cc3ncn(C)n3)c(=O)n(Cc3cc(Cl)cc(Cl)c3)c2cc1-c1cc(C#N)ccc1Cl [Compound I-0550]	> 7.00	> 7.00	–
COc1nc2c(=O)n(Cc3ncn(C)n3)c(=O)n(Cc3cc(Cl)c(F)cc3Cl)c2cc1-c1cc(C#N)ccc1Cl [Compound I-0551]	> 7.00	> 7.00	–
CC(C)Nc1cc2c(c(=O)n(Cc3ncn(C)n3)c(=O)n2Cc2cc(F)c(F)c(F)c2)c2ncn(C)c12 [Compound I-0553]	6.00 to 7.00	–	–
Cn1cnc(Cn2c(=O)c3c4ncn(C)c4c(-c4cc(C#N)ccc4Cl)cc3n(Cc3cc(F)c(F)c(F)c3)c2=O)n1 [Compound I-0556]	9.03	–	pEC50 [2, 4]: 6.42
COc1ccc(Cl)c(-c2cc(OC)c3c(=O)n(Cc4ncn(C)n4)c(=O)n(Cc4cc(F)c(F)c(F)c4)c3c2)c1F [Compound I-0557]	> 7.00	6.00 to 7.00	–
Cn1cnc(Cn2c(=O)c3c4c(c(-c5ncc(F)cc5Cl)cc3n(Cc3cc(F)c(F)c(Cl)c3)c2=O)CCO4)n1 [Compound I-0561]	> 7.00	> 7.00	–
Cn1cnc(Cn2c(=O)c3c4c(c(-c5cnccc5Cl)cc3n(Cc3cc(F)c(F)c(Cl)c3)c2=O)CCO4)n1 [Compound I-0563]	> 7.00	> 7.00	–
Cn1cnc(Cn2c(=O)c3c4c(c(N5CCC(F)(F)CC5)cc3n(Cc3cc(F)c(F)c(F)c3)c2=O)CCO4)n1 [Compound I-0565]	> 7.00	> 7.00	–
Cn1cnc(Cn2c(=O)c3c4nccnc4c(N4CC(F)(F)C(F)(F)C4)cc3n(Cc3cc(F)c(F)c(Cl)c3)c2=O)n1 [Compound I-0570]	7.59	–	pEC50 [2, 4]: 7.61
Cn1cnc(Cn2c(=O)c3c4nccnc4c(-c4c(F)cc(F)cc4F)cc3n(Cc3cc(F)c(F)c(Cl)c3)c2=O)n1 [Compound I-0571]	> 7.00	> 7.00	–
CC(C)=Cc1cc2c(c(=O)n(Cc3ncn(C)n3)c(=O)n2Cc2cc(F)c(F)c(Cl)c2)c2nccnc12 [Compound I-0572]	7.43	–	pEC50 [2, 4]: 7.55
Cn1cnc(Cn2c(=O)c3c4nccnc4c(N4CC(F)C4)cc3n(Cc3cc(F)c(F)c(Cl)c3)c2=O)n1 [Compound I-0573]	> 7.00	> 7.00	–
CC(C)Nc1cc2c(c(=O)n(Cc3ncn(C)n3)c(=O)n2Cc2cc(F)c(F)c(Cl)c2)c2nccnc12 [Compound I-0575]	> 7.00	> 7.00	–
COc1nc2c(=O)n(Cc3ncn(C)n3)c(=O)n(Cc3cc(F)c(F)c(Cl)c3)c2cc1-c1ncc(F)cc1Cl [Compound I-0578]	> 7.00	> 7.00	–
COc1nc2c(=O)n(Cc3ncn(C)n3)c(=O)n(Cc3cc(F)c(F)c(Cl)c3)c2cc1-c1nc(C)ccc1Cl [Compound I-0579]	8.24	–	pEC50 [2, 4]: 7.92
COc1nc2c(=O)n(Cc3ncn(C)n3)c(=O)n(Cc3cc(Cl)c(F)cc3C)c2cc1-c1ncc(F)cc1Cl [Compound I-0580]	> 7.00	> 7.00	–
COc1nc2c(=O)n(Cc3ncn(C)n3)c(=O)n(Cc3cc(Cl)c(F)cc3C)c2cc1-c1nc(C)ccc1Cl [Compound I-0581]	> 7.00	> 7.00	–
Cn1cnc(Cn2c(=O)c3c4nccnc4c(NC4CC5CC5C4)cc3n(Cc3cc(F)c(F)c(Cl)c3)c2=O)n1 (stereo not drawn) [Compound I-0586]	> 7.00	> 7.00	–
COc1cc(-c2cc(C#N)ccc2Cl)cc2c1c(=O)n(Cc1ncn(C)n1)c(=O)n2[C@H](C)c1cc(F)c(F)c(F)c1 [Compound I-0595]	> 7.00	> 7.00	–
Cn1cnc(Cn2c(=O)c3c(cc(-c4cc(C#N)ccc4Cl)n4cnnc34)n(Cc3cc(F)c(F)c(F)c3)c2=O)n1 [Compound I-0644]	> 7.00	–	–
Cn1cnc(Cn2c(=O)c3nnc(N4CC[C@@H](F)C4)cc3n(Cc3cc(F)c(F)c(F)c3)c2=O)n1 [Compound I-0935]	5.00 to 6.00	–	–
